Reference: PMC7531004, “Discovery of gramicidin A analogues with altered activities by multidimensional screening of a one-bead-one-compound library” (Nature Communications, 2020)
Where a SMILES comes first, the peptide text is derived from it. [ ]: non-standard residue; d: D form. The star is where a group is joined. NHCH2CH2OH = OCCN*; For = O=C*

Columns and labels:
[1] = test system: Streptococcus pyogenes SSI-9; test: Antibacterial activity assay of bead-derived peptides (three concentrations); assay type: cell-based; set-up: key: +++: inhibition by the 640-fold diluted peptide solution; ++: inhibition by the 160-fold diluted solution; +: inhibition by the 40-fold diluted solution; -: no inhibition; conditions: S. pyogenes, bead-derived peptide solution, three concentrations
Outline: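 Growth inhibition scored visually as precipitated bacteria after 37 °C, 18 h incubation. Streptococcus pyogenes SSI-9 inoculum of 2 × 10^5 CFU in Ca2+/Mg2+-adjusted Mueller Hinton broth plus 5% laked horse blood; peptides tested at three levels: stock, 4-fold and 16-fold DMSO dilutions.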

[2] = H+/Na+ transport assay of bead-derived peptides (one-point); assay type: biochemical; set-up: key: relative activity; mean of two control wells = 1.00; conditions: bead-derived peptide solution, EYPC/EYPG LUVs;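 also: relative to parent gramicidin A activity set to 1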
Outline: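 H+/Na+ transport is monitored through pyranine fluorescence in freshly extruded LUVs after a 30-min room-temperature vortex with each library peptide at a single concentration. Signals are normalized to detergent (Triton X-100) and untreated controls.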

[3] = test system: P388 mouse leukemia cells; conditions: 92 h
Outline: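 Peptide stocks diluted 250× in growth medium; P388 cells 1 × 10^4 cells/mL final; 37 °C, 5% CO2, 92 h. WST-1 + 1-methoxy PMS, 4 h, A415. Output: % viability.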

In the case of `CC(C)C[C@@H](NC(=O)[C@H](C)NC(=O)[C@H](NC(=O)[C@H](C)NC(=O)CNC(=O)[C@@H](NC=O)C(C)C)[C@H](C)O)C(=O)N[C@H](C(=O)N[C@H](CC(C)C)C(=O)N[C@@H](Cc1c[nH]c2ccccc12)C(=O)N[C@H](CC(C)C)C(=O)N[C@@H](Cc1c[nH]c2ccccc12)C(=O)N[C@H](CC(C)C)C(=O)N[C@@H](Cc1c[nH]c2ccccc12)C(=O)N[C@H](CC(C)C)C(=O)N[C@@H](Cc1c[nH]c2ccccc12)C(=O)NCCO)C(C)C` [compound 10497] (For-VGA[dT]A[dL]V[dL]W[dL]W[dL]W[dL]W-NHCH2CH2OH), the antibacterial activity [1] is reported as “-”, the “H+/Na+ transport activity normalized against the value of 1 (1.00)” value (“H+/Na+ transport activity normalized” for short) [2] is reported as 1.24 and the cell viability/% [3] is reported as 100.0%.

In the case of `CC(C)[C@H](NC=O)C(=O)NCC(=O)N[C@@H](C)C(=O)N[C@@H](C(=O)N[C@@H](C)C(=O)N[C@@H](C(=O)N[C@H](C(=O)N[C@@H](C(=O)N[C@@H](Cc1c[nH]c2ccccc12)C(=O)N[C@@H](C(=O)N[C@@H](Cc1c[nH]c2ccccc12)C(=O)N[C@@H](C(=O)N[C@@H](Cc1c[nH]c2ccccc12)C(=O)N[C@@H](C(=O)N[C@@H](Cc1c[nH]c2ccccc12)C(=O)NCCO)C(C)C)C(C)C)C(C)C)C(C)C)C(C)C)C(C)C)[C@H](C)O` [compound 11453] (For-VGA[dT]A[dV]V[dV]W[dV]W[dV]W[dV]W-NHCH2CH2OH), the antibacterial activity [1] is reported as “-”, the “H+/Na+ transport activity normalized” value [2] is reported as 1.04 and the cell viability/% [3] is reported as 49.2%.

With `CC(C)C[C@@H](NC(=O)[C@H](Cc1c[nH]c2ccccc12)NC(=O)[C@H](NC(=O)[C@H](Cc1c[nH]c2ccccc12)NC(=O)[C@H](NC(=O)[C@H](Cc1c[nH]c2ccccc12)NC(=O)[C@@H](CC(C)C)NC(=O)[C@@H](NC(=O)[C@H](NC(=O)[C@H](C)NC(=O)[C@H](NC(=O)[C@H](C)NC(=O)CNC(=O)[C@@H](NC=O)C(C)C)C(C)C)C(C)C)C(C)C)C(C)C)C(C)C)C(=O)N[C@@H](Cc1c[nH]c2ccccc12)C(=O)NCCO` [compound 10668] (For-VGA[dV]A[dV]V[dL]W[dV]W[dV]W[dL]W-NHCH2CH2OH) the antibacterial activity [1] was “+”, the “H+/Na+ transport activity normalized” value [2] was 1.09 and the cell viability/% [3] was 57.1%.

For `CC(C)C[C@@H](NC(=O)[C@H](Cc1c[nH]c2ccccc12)NC(=O)[C@H](NC(=O)[C@H](Cc1c[nH]c2ccccc12)NC(=O)[C@@H](CC(C)C)NC(=O)[C@H](Cc1c[nH]c2ccccc12)NC(=O)[C@@H](CC(C)C)NC(=O)[C@@H](NC(=O)[C@H](NC(=O)[C@H](C)NC(=O)[C@H](NC(=O)[C@H](C)NC(=O)CNC(=O)[C@@H](NC=O)C(C)C)C(C)C)C(C)C)C(C)C)[C@H](C)O)C(=O)N[C@@H](Cc1c[nH]c2ccccc12)C(=O)NCCO` [compound 10516] (For-VGA[dV]A[dV]V[dL]W[dL]W[dT]W[dL]W-NHCH2CH2OH), the antibacterial activity [1] was “-”, the “H+/Na+ transport activity normalized” value [2] was 1.10 and the cell viability/% [3] was 100.0%.

In the case of `CC(C)C[C@@H](NC(=O)[C@H](Cc1c[nH]c2ccccc12)NC(=O)[C@H](NC(=O)[C@H](Cc1c[nH]c2ccccc12)NC(=O)[C@@H](CC(C)C)NC(=O)[C@H](Cc1c[nH]c2ccccc12)NC(=O)[C@H](NC(=O)[C@@H](NC(=O)[C@H](NC(=O)[C@H](C)NC(=O)[C@H](NC(=O)[C@H](C)NC(=O)CNC(=O)[C@@H](NC=O)C(C)C)C(C)C)C(C)C)C(C)C)[C@H](C)O)C(C)C)C(=O)N[C@@H](Cc1c[nH]c2ccccc12)C(=O)NCCO` [compound 7702] (For-VGA[dV]A[dV]V[dT]W[dL]W[dV]W[dL]W-NHCH2CH2OH), the antibacterial activity [1] is reported as “-”, the “H+/Na+ transport activity normalized” value [2] is reported as 1.01 and the cell viability/% [3] is reported as 100.0%.

With `CC(C)C[C@@H](NC(=O)[C@H](C)NC(=O)[C@H](NC(=O)[C@H](C)NC(=O)CNC(=O)[C@@H](NC=O)C(C)C)C(C)C)C(=O)N[C@H](C(=O)N[C@@H](C(=O)N[C@@H](Cc1c[nH]c2ccccc12)C(=O)N[C@@H](C(=O)N[C@@H](Cc1c[nH]c2ccccc12)C(=O)N[C@H](CC(C)C)C(=O)N[C@@H](Cc1c[nH]c2ccccc12)C(=O)N[C@@H](C(=O)N[C@@H](Cc1c[nH]c2ccccc12)C(=O)NCCO)C(C)C)C(C)C)[C@H](C)O)C(C)C` [compound 13174] (For-VGA[dV]A[dL]V[dT]W[dV]W[dL]W[dV]W-NHCH2CH2OH) the antibacterial activity [1] was “-”, the “H+/Na+ transport activity normalized” value [2] was 1.18 and the cell viability/% [3] was 100.0%.

For `CC(C)C[C@@H](NC(=O)[C@H](C)NC(=O)CNC(=O)[C@@H](NC=O)C(C)C)C(=O)N[C@@H](C)C(=O)N[C@H](CC(C)C)C(=O)N[C@H](C(=O)N[C@H](CC(C)C)C(=O)N[C@@H](Cc1c[nH]c2ccccc12)C(=O)N[C@H](CC(C)C)C(=O)N[C@@H](Cc1c[nH]c2ccccc12)C(=O)N[C@@H](C(=O)N[C@@H](Cc1c[nH]c2ccccc12)C(=O)N[C@@H](C(=O)N[C@@H](Cc1c[nH]c2ccccc12)C(=O)NCCO)C(C)C)C(C)C)C(C)C` [compound 11214] (For-VGA[dL]A[dL]V[dL]W[dL]W[dV]W[dV]W-NHCH2CH2OH), the antibacterial activity [1] was “-”, the “H+/Na+ transport activity normalized” value [2] was 1.02 and the cell viability/% [3] was 2.6%.

With `CNC(=O)C[C@@H](NC(=O)[C@H](Cc1c[nH]c2ccccc12)NC(=O)[C@@H](CC(C)C)NC(=O)[C@H](Cc1c[nH]c2ccccc12)NC(=O)[C@H](NC(=O)[C@H](Cc1c[nH]c2ccccc12)NC(=O)[C@H](NC(=O)[C@@H](NC(=O)[C@@H](CC(C)C)NC(=O)[C@H](C)NC(=O)[C@H](NC(=O)[C@H](C)NC(=O)CNC(=O)[C@@H](NC=O)C(C)C)C(C)C)C(C)C)C(C)C)C(C)C)C(=O)N[C@@H](Cc1c[nH]c2ccccc12)C(=O)NCCO` [compound 6329] (For-VGA[dV]A[dL]V[dV]W[dV]W[dL]W[dD](NHMe)W-NHCH2CH2OH) the antibacterial activity [1] was “-”, the “H+/Na+ transport activity normalized” value [2] was 1.03 and the cell viability/% [3] was 43.5%.

With `CC(C)C[C@@H](NC(=O)[C@H](Cc1c[nH]c2ccccc12)NC(=O)[C@H](NC(=O)[C@H](Cc1c[nH]c2ccccc12)NC(=O)[C@@H](CC(C)C)NC(=O)[C@H](Cc1c[nH]c2ccccc12)NC(=O)[C@H](NC(=O)[C@@H](NC(=O)[C@H](NC(=O)[C@H](C)NC(=O)[C@H](NC(=O)[C@H](C)NC(=O)CNC(=O)[C@@H](NC=O)C(C)C)C(C)C)C(C)C)C(C)C)C(C)C)C(C)C)C(=O)N[C@@H](Cc1c[nH]c2ccccc12)C(=O)NCCO` [compound 1844] (For-VGA[dV]A[dV]V[dV]W[dL]W[dV]W[dL]W-NHCH2CH2OH) the antibacterial activity [1] was “++”, the “H+/Na+ transport activity normalized” value [2] was 1.18 and the cell viability/% [3] was 47.9%.

For `CC(C)C[C@@H](NC(=O)[C@H](C)NC(=O)CNC(=O)[C@@H](NC=O)C(C)C)C(=O)N[C@@H](C)C(=O)N[C@@H](C(=O)N[C@H](C(=O)N[C@@H](C(=O)N[C@@H](Cc1c[nH]c2ccccc12)C(=O)N[C@@H](C(=O)N[C@@H](Cc1c[nH]c2ccccc12)C(=O)N[C@@H](C(=O)N[C@@H](Cc1c[nH]c2ccccc12)C(=O)N[C@H](CC(C)C)C(=O)N[C@@H](Cc1c[nH]c2ccccc12)C(=O)NCCO)C(C)C)C(C)C)C(C)C)C(C)C)C(C)C` [compound 9223] (For-VGA[dL]A[dV]V[dV]W[dV]W[dV]W[dL]W-NHCH2CH2OH), the antibacterial activity [1] was “+”, the “H+/Na+ transport activity normalized” value [2] was 1.03 and the cell viability/% [3] was 100.0%.

With `CNC(=O)C[C@@H](NC(=O)[C@H](Cc1c[nH]c2ccccc12)NC(=O)[C@H](NC(=O)[C@H](Cc1c[nH]c2ccccc12)NC(=O)[C@@H](CC(C)C)NC(=O)[C@H](Cc1c[nH]c2ccccc12)NC(=O)[C@@H](CC(C)C)NC(=O)[C@@H](NC(=O)[C@@H](CC(C)C)NC(=O)[C@H](C)NC(=O)[C@@H](CC(C)C)NC(=O)[C@H](C)NC(=O)CNC(=O)[C@@H](NC=O)C(C)C)C(C)C)C(C)C)C(=O)N[C@@H](Cc1c[nH]c2ccccc12)C(=O)NCCO` [compound 10008] (For-VGA[dL]A[dL]V[dL]W[dL]W[dV]W[dD](NHMe)W-NHCH2CH2OH) the antibacterial activity [1] was “-”, the “H+/Na+ transport activity normalized” value [2] was 1.15 and the cell viability/% [3] was 100.0%.

In the case of `CC(C)C[C@@H](NC(=O)[C@H](C)NC(=O)CNC(=O)[C@@H](NC=O)C(C)C)C(=O)N[C@@H](C)C(=O)N[C@H](CC(C)C)C(=O)N[C@H](C(=O)N[C@H](CC(C)C)C(=O)N[C@@H](Cc1c[nH]c2ccccc12)C(=O)N[C@@H](C(=O)N[C@@H](Cc1c[nH]c2ccccc12)C(=O)N[C@H](CC(C)C)C(=O)N[C@@H](Cc1c[nH]c2ccccc12)C(=O)N[C@H](CC(C)C)C(=O)N[C@@H](Cc1c[nH]c2ccccc12)C(=O)NCCO)C(C)C)C(C)C` [compound 11198] (For-VGA[dL]A[dL]V[dL]W[dV]W[dL]W[dL]W-NHCH2CH2OH), the antibacterial activity [1] is reported as “-”, the “H+/Na+ transport activity normalized” value [2] is reported as 1.08 and the cell viability/% [3] is reported as 3.2%.

In the case of `CNC(=O)C[C@@H](NC(=O)[C@@H](NC(=O)[C@@H](CC(C)C)NC(=O)[C@H](C)NC(=O)[C@@H](CC(C)C)NC(=O)[C@H](C)NC(=O)CNC(=O)[C@@H](NC=O)C(C)C)C(C)C)C(=O)N[C@@H](Cc1c[nH]c2ccccc12)C(=O)N[C@H](CC(C)C)C(=O)N[C@@H](Cc1c[nH]c2ccccc12)C(=O)N[C@H](CC(C)C)C(=O)N[C@@H](Cc1c[nH]c2ccccc12)C(=O)N[C@H](CC(C)C)C(=O)N[C@@H](Cc1c[nH]c2ccccc12)C(=O)NCCO` [compound 2444] (For-VGA[dL]A[dL]V[dD](NHMe)W[dL]W[dL]W[dL]W-NHCH2CH2OH), the antibacterial activity [1] is reported as “-”, the “H+/Na+ transport activity normalized” value [2] is reported as 1.32 and the cell viability/% [3] is reported as 100.0%.
